ChEMBL document CHEMBL1201862, “PubChem BioAssay data set” (2004)
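Each compound was tested at five concentrations against cells in 96-well plates for 48 hours. GI50: concentration for 50% inhibition of growth.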 The source made the active and inactive calls. No stated cut-off is given here; in the data, active = GI50 up to about 1.1 µM and inactive = higher.

Experiments:
Assay in all cases: NCI tumour cell line growth inhibition, 48 h
SNB-78 = tested on: SNB-78
DMS-114 = tested on: DMS-114
LXFL 529 = tested on: LXFL 529
DMS-273 = tested on: DMS-273
M19-MEL = tested on: M19-MEL
XF498 = tested on: XF498
HOP-18 = tested on: HOP-18
DLD-1 = tested on: DLD-1
RXF 631 = tested on: RXF 631

Measured: GI50

O=C1C2C3C=CC(C2C(=O)N1CN1CCSCC1)C1C2C(=O)N(CN4CCSCC4)C(=O)C2C31 (stereo not drawn)
inactive: SNB-78 > 100 µM | DMS-114 38.8 µM | LXFL 529 > 100 µM | DMS-273 > 43.5 µM | M19-MEL > 100 µM | XF498 > 100 µM | HOP-18 41.2 µM | DLD-1 > 51.4 µM | RXF 631 > 100 µM

CCOP(=O)(OCC)C1CCCCOC1=O (stereo not drawn)
inactive: SNB-78 > 100 µM | DMS-114 > 100 µM | LXFL 529 > 100 µM | DMS-273 > 100 µM | M19-MEL > 100 µM | XF498 > 100 µM | HOP-18 44.2 µM | DLD-1 > 100 µM | RXF 631 > 100 µM
